Measured values reported in patent publication US20250304620A1, “ANTIMICROBIAL PEPTIDE AND APPLICATION THEREOF” (priority 2023, published 2025).
Where two headings read alike, the source gives them in different places. Marks after values point to notes of the source that are not given here. Non-standard residues stand in square brackets, D forms with d. PEG2000 = polyethylene glycol 2000, conjugated to the N-terminus; PEG4000 = polyethylene glycol 4000, conjugated to the C-terminus; 2Nal = N[C@@H](Cc1ccc2ccccc2c1)C(=O)O

Key:
Assay type in all cases: in vivo, ICR mice
[1] = system: Methicillin-resistant Staphylococcus aureus (MRSA); conditions: 0.1 mL twice a day for 4 days, mouse back skin infection
Procedure: (§1) Both female and male ICR mice were used in the test, half of the female and male mice were taken and randomly assigned into groups, with 10 mice in each group, and kept in separate cages. The mice were divided into a blank group, a model group, a positive control Methicillin group, and topical formulation groups of AMPs LV-1 to LV-30. Suspensions of Methicillin-sensitive Staphylococcus aureus (NRS 384) and Methicillin-resistant Staphylococcus aureus (MRSA) were prepared, and their concentrations were adjusted to a concentration of 5×10^6 CFU/mL for subsequent use. Hair on backs of the mice was shaved with a shaver, wound was created on back skin of each mouse using a biopsy punch, and the wound was then infected with Methicillin-sensitive Staphylococcus aureus and Methicillin-resistant Staphylococcus aureus (0.1 mL, 5×10^6 CFU/mL) to establish infection models. Except for the blank group and the model group, all other groups received corresponding topical formulations applied directly to the infected areas, with a dose of 0.1 mL, twice a day for 4 consecutive days. On the day following the final administration, skin from the infected sites of each group was aseptically collected, and an antibacterial rate was calculated.

[2] = system: Methicillin-sensitive Staphylococcus aureus (NRS 384); conditions: 0.1 mL twice a day for 4 days, mouse back skin infection
Procedure: as §1

[3] = system: Pseudomonas aeruginosa ATCC 27853; assay: Injectable formulations on mice infected with peritonitis; conditions: 1 mg/kg via tail vein, twice a day for 3 days, n = 10; for Average survival times (Days): observed for 14 d
Outline: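 ICR mice of both sexes (10 per group) infected intraperitoneally with 0.2 mL P. aeruginosa ATCC 27853 at 1×10^9 CFU/mL. Injectable formulations dosed by body weight via tail vein twice daily for 3 days; deaths and survival time recorded over 14 d.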

[4] = system: Escherichia coli ATCC 25922; assay: Oral formulations on mice with systemic bacterial infection; conditions: 1 mg/kg gavage, three times a day for 7 days, n = 10; for Average survival times (Days): observed for 14 d
Outline: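 ICR mice of both sexes, 10 per group, infected i.p. with 0.2 mL E. coli ATCC 25922 at 1×10^7 CFU/mL. Compounds gavaged by body weight immediately after infection, three times daily for 7 days; deaths and survival time recorded over 14 d observation.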

Row | Substance | Inhibition rate against Methicillin-resistant Staphylococcus aureus (%) ([1]; topical formulation 0.2 mg/mL) | Inhibition rate against Methicillin-resistant Staphylococcus aureus (%) ([1]; topical formulation 1 mg/mL) | Inhibition rate against Methicillin-resistant Staphylococcus aureus (%) ([1]; topical formulation 5 mg/mL) | Inhibition rate against Methicillin-sensitive Staphylococcus aureus (%) ([2]; topical formulation 0.2 mg/mL) | Inhibition rate against Methicillin-sensitive Staphylococcus aureus (%) ([2]; topical formulation 1 mg/mL) | Inhibition rate against Methicillin-sensitive Staphylococcus aureus (%) ([2]; topical formulation 5 mg/mL) | Number of mice that died on each day after infection: day 1 [3] | Number of mice that died on each day after infection: day 2 [3] | Number of mice that died on each day after infection: day 3 [3] | Number of mice that died on each day after infection: day 4 [3] | Number of mice that died on each day after infection: day 5 [3] | Average survival times (Days) [3] | Number of mice that died on each day after infection: day 4 [4] | Number of mice that died on each day after infection: day 5 [4] | Number of mice that died on each day after infection: day 6 [4] | Number of mice that died on each day after infection: day 7 [4] | Number of mice that died on each day after infection: day 8 [4] | Average survival times (Days) [4]
1 | Ac-RKLLXRLKXRK-PEG4000 [LV-30] (Ac-RKLL[2Nal]RLK[2Nal]RK-PEG4000) [polyethylene glycol 4000 conjugated to C-terminal; X=3-(2-naphthyl)-alanine] | 86.10% | 87.85% | 88.93% | 96.07% | 96.91% | 98.24% | 1 Mouse | 1 Mouse | 0 Mouse | 1 Mouse | 1 Mouse | 9.6*** Days | 1 Mouse | 1 Mouse | 3 Mouse | 0 Mouse | 1 Mouse | 9.1** Days
2 | PEG2000-RKLLXRLKXRK-NH2 [LV-29] (PEG2000-RKLL[2Nal]RLK[2Nal]RK-NH2) [polyethylene glycol 2000 conjugated to N-terminal; X=3-(2-naphthyl)-alanine] | 86.34% | 87.29% | 88.16% | 96.49% | 97.11% | 98.65% | 1 Mouse | 0 Mouse | 0 Mouse | 3 Mouse | 1 Mouse | 8.8** Days | 0 Mouse | 1 Mouse | 2 Mouse | 1 Mouse | 1 Mouse | 10.2*** Days
